Measured values as given in patent US5672715A, “Herbicidal substituted 3-aryl-pyrazoles” (Monsanto Company, priority 1995, dated 1997).

Legend:
Type in all cases: in vivo
[1] = tested on: Barnyardgrass; test: pre-emergence herbicide test; conditions: Echinochloa crus-galli, pre-emergence, 0.25 lb/A; read-out: % plant inhibition
Summary of the method: (§1)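 Herbicidal effect was assessed as percent inhibition about 14 days after sowing. A known amount of compound was added to the covering topsoil, and the pans were subirrigated in a greenhouse.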

[2] = tested on: Velvetleaf; test: pre-emergence herbicide test; conditions: Abutilon theophrasti, pre-emergence, 0.25 lb/A; read-out: % plant inhibition
Summary of the method: as §1

[3] = tested on: Rape; test: pre-emergence herbicide test; conditions: pre-emergence, 0.25 lb/A; read-out: % plant inhibition
Summary of the method: as §1

[4] = tested on: Wild Oats; test: pre-emergence herbicide test; conditions: 0.25 lb/A; for inhibition at 280.212 g/ha: Avena fatua, pre-emergence, read-out: % plant inhibition
Summary of the method: as §1

[5] = tested on: Corn; test: pre-emergence herbicide test; conditions: 0.25 lb/A; for inhibition at 280.212 g/ha: Zea mays, pre-emergence, read-out: % plant inhibition
Summary of the method: as §1

[6] = tested on: Blackgrass; test: pre-emergence herbicide test; conditions: 0.25 lb/A; for inhibition at 280.212 g/ha: Alopecurus myosuroides, pre-emergence, read-out: % plant inhibition
Summary of the method: as §1

[7] = tested on: Giant Foxtail; test: pre-emergence herbicide test; conditions: Setaria faberi, pre-emergence, 0.25 lb/A; read-out: % plant inhibition
Summary of the method: as §1

[8] = tested on: Bedstraw Catchweed; test: pre-emergence herbicide test; conditions: 0.25 lb/A; for inhibition at 280.212 g/ha: Galium aparine, pre-emergence, read-out: % plant inhibition
Summary of the method: as §1

[9] = tested on: Downy Brome; test: pre-emergence herbicide test; conditions: Bromus tectorum, pre-emergence, 0.25 lb/A; read-out: % plant inhibition
Summary of the method: as §1

[10] = tested on: Soybean; test: pre-emergence herbicide test; conditions: 0.25 lb/A; for inhibition at 280.212 g/ha: Glycine max, pre-emergence, read-out: % plant inhibition
Summary of the method: as §1

[11] = tested on: Cocklebur; test: pre-emergence herbicide test; conditions: 0.25 lb/A; for inhibition at 280.212 g/ha: Xanthium strumarium, pre-emergence, read-out: % plant inhibition
Summary of the method: as §1

[12] = tested on: Common Chickweed; test: pre-emergence herbicide test; conditions: pre-emergence, 0.25 lb/A; read-out: % plant inhibition
Summary of the method: as §1

[13] = tested on: Seedling Johnsongrass; test: pre-emergence herbicide test; conditions: Sorghum halepense, pre-emergence, 0.25 lb/A; read-out: % plant inhibition
Summary of the method: as §1

[14] = tested on: Morning Glory; test: pre-emergence herbicide test; conditions: Ipomoea, pre-emergence, 0.25 lb/A; read-out: % plant inhibition
Summary of the method: as §1

[15] = tested on: Wheat; test: pre-emergence herbicide test; conditions: Triticum aestivum, pre-emergence, 0.25 lb/A; read-out: % plant inhibition
Summary of the method: as §1

[16] = tested on: Green Foxtail; test: pre-emergence herbicide test; conditions: Setaria viridis, pre-emergence; 0.25 lb/A; read-out: % plant inhibition
Summary of the method: as §1

[17] = tested on: Birdseye Speedwell; test: pre-emergence herbicide test; conditions: pre-emergence, 0.25 lb/A; read-out: % plant inhibition
Summary of the method: as §1

[18] = tested on: Barnyardgrass; test: post-emergence herbicide test; conditions: Echinochloa crus-galli, post-emergence, 0.25 lb/A; read-out: % plant inhibition
Summary of the method: (§2)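 Activity is given as percent inhibition of each species following foliar application. Pots were sprayed individually in a chamber once plants reached two to three weeks.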

[19] = tested on: Velvetleaf; test: post-emergence herbicide test; conditions: Abutilon theophrasti, post-emergence, 0.25 lb/A; read-out: % plant inhibition
Summary of the method: as §2

[20] = tested on: Rape; test: post-emergence herbicide test; conditions: post-emergence, 0.25 lb/A; read-out: % plant inhibition
Summary of the method: as §2

[21] = tested on: Wild Oats; test: post-emergence herbicide test; conditions: 0.25 lb/A; for inhibition at 280.212 g/ha: Avena fatua, post-emergence, read-out: % plant inhibition
Summary of the method: as §2

[22] = tested on: Corn; test: post-emergence herbicide test; conditions: 0.25 lb/A; for inhibition at 280.212 g/ha: Zea mays, post-emergence, read-out: % plant inhibition
Summary of the method: as §2

[23] = tested on: Blackgrass; test: post-emergence herbicide test; conditions: 0.25 lb/A; for inhibition at 280.212 g/ha: Alopecurus myosuroides, post-emergence, read-out: % plant inhibition
Summary of the method: as §2

[24] = tested on: Giant Foxtail; test: post-emergence herbicide test; conditions: 0.25 lb/A; for inhibition at 280.212 g/ha: Setaria faberi, post-emergence, read-out: % plant inhibition
Summary of the method: as §2

[25] = tested on: Bedstraw Catchweed; test: post-emergence herbicide test; conditions: 0.25 lb/A; for inhibition at 280.212 g/ha: Galium aparine, post-emergence, read-out: % plant inhibition
Summary of the method: as §2

[26] = tested on: Downy Brome; test: post-emergence herbicide test; conditions: 0.25 lb/A; for inhibition at 280.212 g/ha: Bromus tectorum, post-emergence, read-out: % plant inhibition
Summary of the method: as §2

[27] = tested on: Soybean; test: post-emergence herbicide test; conditions: 0.25 lb/A; for inhibition at 280.212 g/ha: Glycine max, post-emergence, read-out: % plant inhibition
Summary of the method: as §2

[28] = tested on: Cocklebur; test: post-emergence herbicide test; conditions: Xanthium strumarium, post-emergence, 0.25 lb/A; read-out: % plant inhibition
Summary of the method: as §2

[29] = tested on: Common Chickweed; test: post-emergence herbicide test; conditions: post-emergence, 0.25 lb/A; read-out: % plant inhibition
Summary of the method: as §2

[30] = tested on: Seedling Johnsongrass; test: post-emergence herbicide test; conditions: Sorghum halepense, post-emergence, 0.25 lb/A; read-out: % plant inhibition
Summary of the method: as §2

[31] = tested on: Morning Glory; test: post-emergence herbicide test; conditions: 0.25 lb/A; for inhibition at 280.212 g/ha: Ipomoea, post-emergence, read-out: % plant inhibition
Summary of the method: as §2

[32] = tested on: Wheat; test: post-emergence herbicide test; conditions: Triticum aestivum, post-emergence, 0.25 lb/A; read-out: % plant inhibition
Summary of the method: as §2

[33] = tested on: Green Foxtail; test: post-emergence herbicide test; conditions: Setaria viridis, post-emergence, 0.25 lb/A; read-out: % plant inhibition
Summary of the method: as §2

[34] = tested on: Birdseye Speedwell; test: post-emergence herbicide test; conditions: post-emergence, 0.25 lb/A; read-out: % plant inhibition
Summary of the method: as §2

Compound	inhibition at 280.212 g/ha [1] [%]	inhibition at 280.212 g/ha [2] [%]	inhibition at 280.212 g/ha [3] [%]	inhibition at 280.212 g/ha [7] [%]	inhibition at 280.212 g/ha [9] [%]	inhibition at 280.212 g/ha [12] [%]	inhibition at 280.212 g/ha [13] [%]	inhibition at 280.212 g/ha [14] [%]	inhibition at 280.212 g/ha [15] [%]	inhibition at 280.212 g/ha [16] [%]	inhibition at 280.212 g/ha [17] [%]	inhibition at 280.212 g/ha [18] [%]	inhibition at 280.212 g/ha [19] [%]	inhibition at 280.212 g/ha [20] [%]	inhibition at 280.212 g/ha [28] [%]	inhibition at 280.212 g/ha [29] [%]	inhibition at 280.212 g/ha [30] [%]	inhibition at 280.212 g/ha [32] [%]	inhibition at 280.212 g/ha [33] [%]	inhibition at 280.212 g/ha [34] [%]	further results
Cc1c(-c2cc(C(=O)OCc3ccccc3)c(Cl)cc2F)nn(C)c1C(F)(F)F [Compound 41]	50	90	5	40	30	55	50	0	3	100	100	65	99	40	95	98	70	15	90	100	inhibition at 280.212 g/ha [4]: 10%; inhibition at 280.212 g/ha [5]: 0%; inhibition at 280.212 g/ha [6]: 15%; inhibition at 280.212 g/ha [8]: 60%; inhibition at 280.212 g/ha [10]: 0%; inhibition at 280.212 g/ha [11]: 25%; inhibition at 280.212 g/ha [21]: 20%; inhibition at 280.212 g/ha [22]: 35%; inhibition at 280.212 g/ha [23]: 20%; inhibition at 280.212 g/ha [24]: 5%; inhibition at 280.212 g/ha [25]: 100%; inhibition at 280.212 g/ha [26]: 30%; inhibition at 280.212 g/ha [27]: 15%; inhibition at 280.212 g/ha [31]: 75%
CCOC(=O)CCCOC(=O)c1cc(-c2nn(C)c(C(F)(F)F)c2C)c(F)cc1Cl [Compound 24]	20	60	95	35	30	100	10	0	7	100	100	15	99	25	85	90	20	20	20	95	inhibition at 280.212 g/ha [4]: 15%; inhibition at 280.212 g/ha [5]: 0%; inhibition at 280.212 g/ha [6]: 50%; inhibition at 280.212 g/ha [8]: 95%; inhibition at 280.212 g/ha [10]: 0%; inhibition at 280.212 g/ha [11]: 40%; inhibition at 280.212 g/ha [21]: 25%; inhibition at 280.212 g/ha [22]: 10%; inhibition at 280.212 g/ha [23]: 25%; inhibition at 280.212 g/ha [24]: 15%; inhibition at 280.212 g/ha [25]: 65%; inhibition at 280.212 g/ha [26]: 25%; inhibition at 280.212 g/ha [27]: 45%; inhibition at 280.212 g/ha [31]: 75%
Cc1c(-c2cc(C(=O)OCCC(C)C)c(Cl)cc2F)nn(C)c1C(F)(F)F [Compound 51]	50	90	5	90	35	70	80	15	0	100	90	60	100	20	85	75	85	12	80	98	% plant inhibition [4]: 15%; % plant inhibition [5]: 8%; % plant inhibition [6]: 20%; % plant inhibition [8]: 55%; % plant inhibition [10]: 3%; % plant inhibition [11]: 0%; % plant inhibition [21]: 55%; % plant inhibition [22]: 7%; % plant inhibition [23]: 45%; % plant inhibition [24]: 85%; % plant inhibition [25]: 40%; % plant inhibition [26]: 45%; % plant inhibition [27]: 65%; % plant inhibition [31]: 35%
